Blank lines part the entries; values can stand above or below the compound they belong to.
Key:
Assay in all cases: radiometric filter-binding kinase assay
[1] = target: AURKA (human) (UniProt O14965)
[2] = target: AURKB (human) (UniProt Q96GD4)
[3] = target: BRSK1 (human) (UniProt Q8TDC3)
[4] = target: BTK (human) (UniProt Q06187)
[5] = target: CDK2 CCNA2 (human) (UniProt P20248+P24941)
[6] = target: CHEK1 (human) (UniProt O14757)
[7] = target: CSNK2A1 (human) (UniProt P68400)
[8] = target: DYRK2 (human) (UniProt Q92630)
[9] = target: EEF2K (human) (UniProt O00418)
[10] = target: EPHA2 (human) (UniProt P29317)
Chain of EPHA2 (human) (P29317 whole entry, looked up): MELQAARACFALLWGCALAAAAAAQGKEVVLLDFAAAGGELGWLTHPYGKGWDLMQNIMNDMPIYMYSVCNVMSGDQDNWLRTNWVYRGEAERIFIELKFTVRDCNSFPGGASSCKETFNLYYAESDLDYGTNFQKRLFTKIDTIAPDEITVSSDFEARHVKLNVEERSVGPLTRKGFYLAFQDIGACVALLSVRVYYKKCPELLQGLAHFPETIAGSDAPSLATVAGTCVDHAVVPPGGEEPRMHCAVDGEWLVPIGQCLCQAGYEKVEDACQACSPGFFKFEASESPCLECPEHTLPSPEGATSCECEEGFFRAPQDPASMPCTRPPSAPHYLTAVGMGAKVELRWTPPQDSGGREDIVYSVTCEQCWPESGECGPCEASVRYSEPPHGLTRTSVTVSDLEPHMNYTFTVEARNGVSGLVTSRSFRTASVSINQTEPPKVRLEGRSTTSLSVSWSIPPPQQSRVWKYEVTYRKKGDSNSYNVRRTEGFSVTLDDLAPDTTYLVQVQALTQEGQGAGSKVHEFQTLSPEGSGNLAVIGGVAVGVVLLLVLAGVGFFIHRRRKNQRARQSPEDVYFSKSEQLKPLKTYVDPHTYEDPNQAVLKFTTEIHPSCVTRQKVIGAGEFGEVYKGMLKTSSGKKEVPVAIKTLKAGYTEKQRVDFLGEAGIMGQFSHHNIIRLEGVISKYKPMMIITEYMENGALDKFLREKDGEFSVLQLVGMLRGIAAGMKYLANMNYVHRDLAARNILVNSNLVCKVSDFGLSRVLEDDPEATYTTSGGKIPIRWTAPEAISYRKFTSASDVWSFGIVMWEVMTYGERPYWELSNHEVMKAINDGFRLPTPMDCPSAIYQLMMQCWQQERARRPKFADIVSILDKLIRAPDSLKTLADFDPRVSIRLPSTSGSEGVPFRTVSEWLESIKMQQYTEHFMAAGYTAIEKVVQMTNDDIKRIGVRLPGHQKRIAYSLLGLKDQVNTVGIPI

[11] = target: ERBB4 (human) (UniProt Q15303)
[12] = target: FGFR1 (human) (UniProt P11362); conditions: compound 10.0 µM
[13] = target: FLT1 (human) (UniProt P17948)
[14] = target: GCK (human) (UniProt Q12851); conditions: compound 100.0 µM
[15] = target: INSRR (human) (UniProt P14616)
[16] = target: MAP2K2 (human) (UniProt P36507)
[17] = target: MAP2K6 (human) (UniProt P52564)
[18] = target: MAPK10 (human) (UniProt P53779)
[19] = target: MAPK12 (human) (UniProt P53778)
Chain of MAPK12 (human) (P53778 whole entry, looked up): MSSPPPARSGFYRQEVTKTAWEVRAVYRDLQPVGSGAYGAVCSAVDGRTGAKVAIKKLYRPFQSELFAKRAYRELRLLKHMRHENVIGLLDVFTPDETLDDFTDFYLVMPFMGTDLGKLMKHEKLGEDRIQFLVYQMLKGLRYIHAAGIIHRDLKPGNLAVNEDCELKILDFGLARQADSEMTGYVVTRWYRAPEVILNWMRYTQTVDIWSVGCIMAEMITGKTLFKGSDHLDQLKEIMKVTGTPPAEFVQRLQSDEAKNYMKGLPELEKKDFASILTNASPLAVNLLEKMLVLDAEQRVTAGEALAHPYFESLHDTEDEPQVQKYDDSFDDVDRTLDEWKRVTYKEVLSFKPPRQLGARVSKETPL

[20] = target: MAPK15 (human) (UniProt Q8TD08)
[21] = target: MAPKAPK3 (human) (UniProt Q16644)
[22] = target: MAPKAPK5 (human) (UniProt Q8IW41)
[23] = target: MELK (human) (UniProt Q14680)
[24] = target: MST4 (human) (UniProt Q9P289)
Chain of MST4 (human) (Q9P289 whole entry, looked up): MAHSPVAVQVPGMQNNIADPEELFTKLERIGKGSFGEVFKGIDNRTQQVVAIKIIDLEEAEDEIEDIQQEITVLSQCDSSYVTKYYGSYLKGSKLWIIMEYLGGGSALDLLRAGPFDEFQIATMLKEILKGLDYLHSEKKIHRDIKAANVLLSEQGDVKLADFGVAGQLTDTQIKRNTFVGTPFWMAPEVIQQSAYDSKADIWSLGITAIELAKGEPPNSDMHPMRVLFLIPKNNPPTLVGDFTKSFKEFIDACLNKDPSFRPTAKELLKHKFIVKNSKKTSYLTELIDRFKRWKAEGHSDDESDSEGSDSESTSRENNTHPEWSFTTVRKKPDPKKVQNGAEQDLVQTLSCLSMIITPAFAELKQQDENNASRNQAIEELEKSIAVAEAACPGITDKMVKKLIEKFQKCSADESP

[25] = test system: PAK2 (human), Q13177 [T402E]
[26] = target: PIM2 (human) (UniProt Q9P1W9)
[27] = target: PIM3 (human) (UniProt Q86V86)
[28] = target: PRKACA (human) (UniProt P17612)
[29] = target: PRKCA (human) (UniProt P17252)
[30] = target: RIPK2 (human) (UniProt O43353)
[31] = target: RPS6KA3 KD1 KD2 (human) (UniProt P51812)
[32] = test system: SGK1 (human), O00141 [S422D]
[33] = target: SRPK1 (human) (UniProt Q96SB4)
[34] = target: TAOK1 (human) (UniProt Q7L7X3)
Chain of TAOK1 (human) (Q7L7X3 whole entry, looked up): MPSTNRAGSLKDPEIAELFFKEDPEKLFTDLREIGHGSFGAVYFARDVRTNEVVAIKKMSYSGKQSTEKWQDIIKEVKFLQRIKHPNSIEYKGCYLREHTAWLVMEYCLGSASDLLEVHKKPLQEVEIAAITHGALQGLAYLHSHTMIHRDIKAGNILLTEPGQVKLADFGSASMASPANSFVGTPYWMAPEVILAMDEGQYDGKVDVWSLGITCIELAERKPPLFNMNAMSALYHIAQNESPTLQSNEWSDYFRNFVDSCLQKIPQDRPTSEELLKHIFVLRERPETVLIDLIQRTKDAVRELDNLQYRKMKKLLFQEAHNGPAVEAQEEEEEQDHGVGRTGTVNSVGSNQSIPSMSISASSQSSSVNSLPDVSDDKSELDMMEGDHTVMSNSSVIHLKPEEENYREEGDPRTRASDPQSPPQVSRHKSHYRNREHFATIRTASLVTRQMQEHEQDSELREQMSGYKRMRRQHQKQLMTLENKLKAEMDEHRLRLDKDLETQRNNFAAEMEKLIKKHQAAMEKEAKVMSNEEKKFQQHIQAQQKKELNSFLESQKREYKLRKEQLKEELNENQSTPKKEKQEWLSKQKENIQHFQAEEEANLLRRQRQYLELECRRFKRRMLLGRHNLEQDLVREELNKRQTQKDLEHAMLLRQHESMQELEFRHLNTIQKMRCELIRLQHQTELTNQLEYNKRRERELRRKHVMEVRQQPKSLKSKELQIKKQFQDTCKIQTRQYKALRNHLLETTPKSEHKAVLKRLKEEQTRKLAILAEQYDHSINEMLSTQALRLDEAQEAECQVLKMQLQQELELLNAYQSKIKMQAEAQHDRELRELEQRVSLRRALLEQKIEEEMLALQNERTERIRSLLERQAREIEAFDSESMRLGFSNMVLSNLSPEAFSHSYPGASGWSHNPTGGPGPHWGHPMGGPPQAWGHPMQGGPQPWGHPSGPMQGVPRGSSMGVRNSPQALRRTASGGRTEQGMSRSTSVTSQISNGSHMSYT

[35] = target: MINK1 (human) (UniProt Q8N4C8); conditions: compound 10.0 µM
[36] = target: PHKG1 (human) (UniProt Q16816); conditions: compound 10.0 µM

Chain of CSNK2A1 (human) (P68400 whole entry, looked up): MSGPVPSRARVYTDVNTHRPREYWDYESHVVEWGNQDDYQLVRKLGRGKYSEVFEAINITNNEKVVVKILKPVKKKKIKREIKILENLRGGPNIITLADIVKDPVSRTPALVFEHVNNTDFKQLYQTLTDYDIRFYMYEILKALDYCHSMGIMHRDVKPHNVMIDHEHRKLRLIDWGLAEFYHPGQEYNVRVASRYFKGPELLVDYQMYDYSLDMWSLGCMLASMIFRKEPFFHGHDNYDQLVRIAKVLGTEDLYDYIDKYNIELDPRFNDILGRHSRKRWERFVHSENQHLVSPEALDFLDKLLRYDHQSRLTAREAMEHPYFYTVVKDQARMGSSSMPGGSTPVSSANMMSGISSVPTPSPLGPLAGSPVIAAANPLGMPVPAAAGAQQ
Chain of AURKB (human) (Q96GD4 whole entry, looked up): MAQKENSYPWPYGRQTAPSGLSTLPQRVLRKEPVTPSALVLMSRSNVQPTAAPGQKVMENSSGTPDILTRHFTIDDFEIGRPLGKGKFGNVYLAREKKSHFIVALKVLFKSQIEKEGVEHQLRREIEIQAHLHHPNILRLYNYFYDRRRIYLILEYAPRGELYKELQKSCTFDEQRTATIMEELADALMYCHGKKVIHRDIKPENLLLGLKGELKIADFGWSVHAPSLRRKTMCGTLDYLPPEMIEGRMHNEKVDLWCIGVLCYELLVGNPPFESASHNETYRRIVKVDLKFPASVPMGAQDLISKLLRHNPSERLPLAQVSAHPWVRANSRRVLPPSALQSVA
Chain of CHEK1 (human) (O14757 whole entry, looked up): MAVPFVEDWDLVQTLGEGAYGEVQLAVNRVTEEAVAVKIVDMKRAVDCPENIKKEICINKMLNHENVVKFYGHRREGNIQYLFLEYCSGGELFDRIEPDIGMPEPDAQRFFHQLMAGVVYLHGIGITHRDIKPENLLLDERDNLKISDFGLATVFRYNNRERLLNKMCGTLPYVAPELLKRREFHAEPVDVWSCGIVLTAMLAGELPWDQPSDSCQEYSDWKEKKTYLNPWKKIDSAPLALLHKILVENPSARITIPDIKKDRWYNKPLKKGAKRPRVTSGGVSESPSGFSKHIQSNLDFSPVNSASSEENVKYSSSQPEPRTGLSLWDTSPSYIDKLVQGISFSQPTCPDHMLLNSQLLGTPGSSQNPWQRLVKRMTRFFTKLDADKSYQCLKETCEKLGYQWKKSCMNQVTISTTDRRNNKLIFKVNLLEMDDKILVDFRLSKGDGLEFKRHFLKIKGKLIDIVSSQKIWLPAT

- residual activity ([1]; compound 10.0 µM): 117%
- residual activity ([1]; compound 100.0 µM): 120%
- residual activity ([1]; compound 1000.0 µM): 114%
- residual activity ([2]; compound 10.0 µM): 90%
- residual activity ([2]; compound 100.0 µM): 102%
- residual activity ([2]; compound 1000.0 µM): 98%
- residual activity ([3]; compound 100.0 µM): 93%
- residual activity ([3]; compound 1000.0 µM): 91%
- residual activity ([4]; compound 1000.0 µM): 135%
- residual activity ([5]; compound 10.0 µM): 77%
- residual activity ([5]; compound 100.0 µM): 75%
- residual activity ([5]; compound 1000.0 µM): 87%
- residual activity ([6]; compound 100.0 µM): 93%
- residual activity ([6]; compound 1000.0 µM): 97%
- residual activity ([7]; compound 10.0 µM): 98%
- residual activity ([7]; compound 100.0 µM): 95%
- residual activity ([7]; compound 1000.0 µM): 91%
- residual activity ([8]; compound 10.0 µM): 91%
- residual activity ([8]; compound 100.0 µM): 94%
- residual activity ([8]; compound 1000.0 µM): 103%
- residual activity ([9]; compound 100.0 µM): 106%
- residual activity ([9]; compound 1000.0 µM): 111%
- residual activity ([10]; compound 10.0 µM): 106%
- residual activity ([10]; compound 100.0 µM): 124%
- residual activity ([10]; compound 1000.0 µM): 129%
- residual activity ([11]; compound 10.0 µM): 110%
- residual activity ([11]; compound 1000.0 µM): 108%
- residual activity [12]: 85%
- residual activity ([13]; compound 10.0 µM): 108%
- residual activity ([13]; compound 100.0 µM): 110%
- residual activity ([13]; compound 1000.0 µM): 98%
- residual activity [14]: 107%
- residual activity ([15]; compound 10.0 µM): 103%
- residual activity ([15]; compound 100.0 µM): 108%
- residual activity ([15]; compound 1000.0 µM): 112%
- residual activity ([16]; compound 10.0 µM): 105%
- residual activity ([16]; compound 100.0 µM): 101%
- residual activity ([17]; compound 10.0 µM): 92%
- residual activity ([17]; compound 100.0 µM): 88%
- residual activity ([18]; compound 10.0 µM): 103%
- residual activity ([18]; compound 100.0 µM): 103%
- residual activity ([18]; compound 1000.0 µM): 100%
- residual activity ([19]; compound 10.0 µM): 87%
- residual activity ([19]; compound 100.0 µM): 96%
- residual activity ([19]; compound 1000.0 µM): 104%
- residual activity ([21]; compound 10.0 µM): 87%
- residual activity ([21]; compound 100.0 µM): 97%
- residual activity ([22]; compound 10.0 µM): 96%
- residual activity ([22]; compound 100.0 µM): 92%
- residual activity ([22]; compound 1000.0 µM): 94%
- residual activity ([23]; compound 10.0 µM): 93%
- residual activity ([23]; compound 100.0 µM): 103%
- residual activity ([24]; compound 10.0 µM): 95%
- residual activity ([24]; compound 100.0 µM): 106%
- residual activity ([25]; compound 10.0 µM): 101%
- residual activity ([25]; compound 100.0 µM): 104%
- residual activity ([25]; compound 1000.0 µM): 86%
- residual activity ([26]; compound 10.0 µM): 117%
- residual activity ([26]; compound 100.0 µM): 109%
- residual activity ([26]; compound 1000.0 µM): 116%
- residual activity ([27]; compound 10.0 µM): 96%
- residual activity ([27]; compound 100.0 µM): 106%
- residual activity ([27]; compound 1000.0 µM): 92%
- residual activity ([28]; compound 10.0 µM): 92%
- residual activity ([28]; compound 100.0 µM): 96%
- residual activity ([28]; compound 1000.0 µM): 99%
- residual activity ([29]; compound 10.0 µM): 99%
- residual activity ([29]; compound 100.0 µM): 101%
- residual activity ([29]; compound 1000.0 µM): 105%
- residual activity ([30]; compound 10.0 µM): 93%
- residual activity ([30]; compound 100.0 µM): 104%
- residual activity ([30]; compound 1000.0 µM): 111%
- residual activity ([31]; compound 1000.0 µM): 117%
- residual activity ([32]; compound 10.0 µM): 93%
- residual activity ([32]; compound 100.0 µM): 96%
- residual activity ([32]; compound 1000.0 µM): 100%
- residual activity ([33]; compound 10.0 µM): 91%
- residual activity ([33]; compound 100.0 µM): 101%
- residual activity ([33]; compound 1000.0 µM): 103%
- residual activity ([34]; compound 10.0 µM): 91%
- residual activity ([34]; compound 100.0 µM): 109%
- residual activity ([34]; compound 1000.0 µM): 123%
Structure (SMILES): COC(=O)/C=C/C(=O)OC
- residual activity ([20]; compound 10.0 µM): 89%
- residual activity ([20]; compound 100.0 µM): 100%
- residual activity ([20]; compound 1000.0 µM): 96%

- residual activity ([1]; compound 10.0 µM): 105%
- residual activity ([2]; compound 10.0 µM): 75%
- residual activity ([3]; compound 10.0 µM): 90%
- residual activity ([4]; compound 10.0 µM): 90%
- residual activity ([5]; compound 10.0 µM): 86%
- residual activity ([6]; compound 10.0 µM): 107%
- residual activity ([7]; compound 10.0 µM): 82%
- residual activity ([8]; compound 10.0 µM): 94%
- residual activity ([9]; compound 10.0 µM): 83%
- residual activity ([10]; compound 10.0 µM): 98%
- residual activity ([11]; compound 10.0 µM): 72%
- residual activity [12]: 69%
- residual activity ([13]; compound 10.0 µM): 64%
- residual activity ([15]; compound 10.0 µM): 104%
- residual activity ([16]; compound 10.0 µM): 94%
- residual activity ([17]; compound 10.0 µM): 92%
- residual activity ([18]; compound 10.0 µM): 91%
- residual activity ([21]; compound 10.0 µM): 102%
- residual activity ([22]; compound 10.0 µM): 92%
- residual activity ([23]; compound 10.0 µM): 80%
- residual activity [35]: 73%
- residual activity ([24]; compound 10.0 µM): 122%
- residual activity ([25]; compound 10.0 µM): 92%
- residual activity [36]: 44%
- residual activity ([26]; compound 10.0 µM): 94%
- residual activity ([27]; compound 10.0 µM): 92%
- residual activity ([28]; compound 10.0 µM): 95%
- residual activity ([29]; compound 10.0 µM): 113%
- residual activity ([30]; compound 10.0 µM): 91%
- residual activity ([31]; compound 10.0 µM): 94%
- residual activity ([32]; compound 10.0 µM): 78%
- residual activity ([33]; compound 10.0 µM): 90%
Structure (SMILES): CC(C)C[C@H](NC(=O)CNC(=O)c1cc(Cl)ccc1Cl)B1OC(=O)CC(CC(=O)O)(C(=O)O)O1 (stereo partly drawn)
- residual activity ([20]; compound 10.0 µM): 100%

Source: the kinase profiling compilation of Christmann-Franck et al. (2016)
